`O=S(=O)(NCCN1CC(c2ccccc2)C(c2ccc(Cl)cc2)=N1)c1cccc(C(F)(F)F)c1` (stereo not drawn) [IX, N-[2-(3-(4-Chlorophenyl)-4,5-dihydro-4-phenyl-1H-pyrazol-1-yl)ethyl]-3-(trifluoromethyl)benzenesulfonamide] registered a melting point of 94 to 96 °C. The same measure for `CNC(=NC(=O)c1cccc(C(F)(F)F)c1)N1CC(c2ccccc2)C(c2ccc(Cl)cc2)=N1` (stereo not drawn) [V, N-Methyl-N′-(3-(trifluoromethyl)benzoyl)-3-(4-chlorophenyl)-4,5-dihydro-4-phenyl-1H-pyrazole-1-carboxamidine]: 180 to 182 °C. The same measure for `O=S(=O)(CCN1CC(c2ccccc2)C(c2ccc(Cl)cc2)=N1)c1cccc(C(F)(F)F)c1` (stereo not drawn) [VIII, 3-(4-Chlorophenyl)-4,5-dihydro-4-phenyl-1-[2-((3-(trifluoromethyl)phenyl)-sulfonyl)ethyl]-1H-pyrazole]: 118 to 119 °C.

Broadly, the melting point is the temperature of the solid-liquid transition.
